{"source": "paper PMC4624772", "about": "(PLoS Pathogens, 2015)", "target": "T1, MshE (VC0405) (Vibrio cholerae, UniProt Q9KUV7)", "T1 construct": "gene VC_0405", "T1 sequence (Q9KUV7 1-575)": "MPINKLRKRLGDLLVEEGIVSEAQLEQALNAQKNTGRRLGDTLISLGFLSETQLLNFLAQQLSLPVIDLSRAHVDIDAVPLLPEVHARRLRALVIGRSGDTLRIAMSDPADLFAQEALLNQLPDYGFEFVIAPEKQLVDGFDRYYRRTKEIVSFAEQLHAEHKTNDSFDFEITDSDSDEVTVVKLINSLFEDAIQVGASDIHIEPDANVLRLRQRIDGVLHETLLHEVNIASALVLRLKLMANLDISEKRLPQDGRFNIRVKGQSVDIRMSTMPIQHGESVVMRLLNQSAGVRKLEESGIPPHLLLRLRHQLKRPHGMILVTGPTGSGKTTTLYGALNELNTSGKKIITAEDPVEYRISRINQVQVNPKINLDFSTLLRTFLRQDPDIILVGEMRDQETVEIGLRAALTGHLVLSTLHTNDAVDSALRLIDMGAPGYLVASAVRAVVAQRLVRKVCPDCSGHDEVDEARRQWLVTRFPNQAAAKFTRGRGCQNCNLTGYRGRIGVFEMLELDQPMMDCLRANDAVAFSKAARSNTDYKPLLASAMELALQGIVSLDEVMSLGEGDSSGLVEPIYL", "experiment": "biochemical"}
{"compound": "Nc1nc2c(ncn2[C@@H]2O[C@@H]3CO[P@](=O)(O)O[C@H]4[C@@H](O)[C@H](n5cnc6c(=O)[nH]c(N)nc65)O[C@@H]4CO[P@](=O)(O)O[C@H]3[C@H]2O)c(=O)[nH]1", "note": "[c-di-GMP]", "values": [{"measurement": "Kd", "value": "1900 ± 400", "unit": "nM"}]}
